Source: US20240226103A1, “SOLID DISPERSION OF A HER2 INHIBITOR” (Boehringer Ingelheim International GmbH, priority 2022, published 2024)
≈ marks a conversion by molar mass, not a printed value. Where two headings read alike, the source gives them in different places.

Assays:
Format in all cases: physicochemical
[1] = Equilibrium solubility in aqueous media at different pH and in biorelevant media (UPLC-UV-MS); conditions: for Equilibrium solubility Conc.: 24 h; for solubility thermodynamic at 24 h: thermodynamic from solid, read-out: Equilibrium solubility Conc.
Experimental: Discard the first ˜3.5 mL then collect 3 aliquots (˜0.5 mL) to be analyzed. • Quantification of the 3 aliquots by UPLC-UV-MS with the appropriate calibration curve.
• Instrument: Waters Acquity H-Class with PDA and QDa detectors • Column: Waters Acquity BEH C18, 1.7 μm, 2.1×50 mm • Flow rate: 0.65 mL/min • UV detection: 254 nm or 410 nm • Column temperature: 40° C.±2° C. • Sample temperature: 23° C.±2° C. • Injection volumes: 0.4 μL (for concentration between 1-500 μg/mL) and 9 μL (for concentration between 0.050-1 μg/mL) • Mobile phase: gradient with solutions A and B prepared as follows
• Ionisation mode: ESI+/ESI− • Source temperature: 600° C. • Capillary voltage: 0.8 kV • Cone voltage: +20V/−20V
Two standard calibration curves (chromatographic UV peak area vs. concentration) are established in DMSO at 254 nm or 410 nm for each solid form and for the solid dispersion, one between 0.025 or 0.050 μg/mL and 1 μg/mL (injection volume=9 μL) and another between 1 μg/mL and 500 μg/mL (injection volume=0.4 μL). The calibration curves are linear in the whole investigated concentration range.

[2] = pH-dependent solubility of compound (1) in aqueous media
Excerpt: Consequently, the in vivo absorption of compound (1) is affected by gastric pH. […] Such a decrease may occur to different extents in different patients due to inter-patient stomach pH variability.

[3] = Organic solubility screening in DCM:methanol solvent blends (visual observation)
Experimental: Solubility is determined by visual observation.

[4] = Acetate Buffer pH 4, room temperature
[5] = Phosphate Buffer pH 7.4, room temperature

Structure (SMILES)	Equilibrium solubility Conc. [1, 4] [µg/mL]	solubility thermodynamic at 24 h ([1]; FaSSIF, 37 °C, pH 6.5, fassif, FaSSIF pH 6.5, 37° C.) [µg/mL]	solubility thermodynamic at 24 h ([1]; FeSSIF, 37 °C, pH 5, fessif, FeSSIF pH 5.0, 37° C.) [µg/mL]	solubility thermodynamic at 24 h ([1]; HCl 0.01N, pH 2, simulated gastric fluid, HCl 0.01N pH 2, room temperature) [µg/mL]	Equilibrium solubility Conc. [1, 5] [µg/mL]	solubility thermodynamic at 24 h ([1]; acetate buffer, pH 5, aqueous buffer, Acetate Buffer pH 5, room temperature) [µg/mL]	solubility thermodynamic at 24 h ([1]; phosphate buffer, pH 6.8, aqueous buffer, Phosphate Buffer pH 6.8, room temperature) [µg/mL]	Equilibrium solubility Conc. ([1]; Acetate Buffer pH 5, room temperature) [µg/mL]	Equilibrium solubility Conc. ([1]; FaSSIF pH 6.5, 37° C.) [µg/mL]	Equilibrium solubility Conc. ([1]; FeSSIF pH 5.0, 37° C.) [µg/mL]	Equilibrium solubility Conc. ([1]; HCl 0.01N pH 2, room temperature) [µg/mL]	Equilibrium solubility Conc. ([1]; Phosphate Buffer pH 6.8, room temperature) [µg/mL]	decrease in solubility between pH 1.2 and pH 6.8 [2]	Solubility ([3]; DCM:methanol 70:30) [wt %]	Solubility ([3]; DCM:methanol 80:20) [wt %]	Solubility ([3]; DCM:methanol 90:10) [wt %]
C=CC(=O)NC1CCN(c2ncc3ncnc(Nc4ccc(Oc5ccc6c(c5)ncn6C)c(C)c4)c3n2)CC1 [compound (1) Form III, N-{1-[8-({3-methyl-4-[(1-methyl-1H-1,3-benzodiazol-5-yl)oxy]phenyl}amino)-[1,3]diazino[5,4-d]pyrimidin-2-yl]piperidin-4-yl}prop-2-enamide]	6.6	0.803 (≈ 1.5 µM)	49 (≈ 91.5 µM)	1320 (≈ 2470 µM)	0.056	0.126 (≈ 0.235 µM)	0.025 (≈ 0.0467 µM)	–	–	–	–	–	–	–	–	–
C=CC(=O)NC1CCN(c2ncc3ncnc(Nc4ccc(Oc5ccc6c(c5)ncn6C)c(C)c4)c3n2)CC1 [compound (1) Form IV, N-{1-[8-({3-methyl-4-[(1-methyl-1H-1,3-benzodiazol-5-yl)oxy]phenyl}amino)-[1,3]diazino[5,4-d]pyrimidin-2-yl]piperidin-4-yl}prop-2-enamide]	3	–	–	–	0.018	–	–	0.075	0.726	44	761	0.027	–	–	–	–
C=CC(=O)NC1CCN(c2ncc3ncnc(Nc4ccc(Oc5ccc6c(c5)ncn6C)c(C)c4)c3n2)CC1 [compound (1), N-{1-[8-({3-methyl-4-[(1-methyl-1H-1,3-benzodiazol-5-yl)oxy]phenyl}amino)-[1,3]diazino[5,4-d]pyrimidin-2-yl]piperidin-4-yl}prop-2-enamide]	–	–	–	–	–	–	–	–	–	–	–	–	about 10^5 fold	>16.8	>18.7	>17.1
